Source: US9505767B2, “Pyrazolo[1,5-A]pyrimidin-7(4H)-onehistone demethylase inhibitors” (Genentech, Inc., priority 2013, dated 2016)
pIC50: −log10 of the molar value.

What follows are molecules tested against T1, KDM5A (Homo sapiens, UniProt P29375) (assay: KDM5A Demethylase Assay (TR-FRET Assay-B)). Conditions: full length recombinant Flag tagged KDM5A, 2 nM, TrisCl pH 7.4, 3.0 μM α-ketoglutarate, read-out: B KDM5A HTRF (IC50).
T1 construct: Full length recombinant Flag tagged KDM5A protein was purified from Sf9 insect cells; Flag; made in house; host or cells: Sf9 insect cells
T1 sequence (P29375 whole entry): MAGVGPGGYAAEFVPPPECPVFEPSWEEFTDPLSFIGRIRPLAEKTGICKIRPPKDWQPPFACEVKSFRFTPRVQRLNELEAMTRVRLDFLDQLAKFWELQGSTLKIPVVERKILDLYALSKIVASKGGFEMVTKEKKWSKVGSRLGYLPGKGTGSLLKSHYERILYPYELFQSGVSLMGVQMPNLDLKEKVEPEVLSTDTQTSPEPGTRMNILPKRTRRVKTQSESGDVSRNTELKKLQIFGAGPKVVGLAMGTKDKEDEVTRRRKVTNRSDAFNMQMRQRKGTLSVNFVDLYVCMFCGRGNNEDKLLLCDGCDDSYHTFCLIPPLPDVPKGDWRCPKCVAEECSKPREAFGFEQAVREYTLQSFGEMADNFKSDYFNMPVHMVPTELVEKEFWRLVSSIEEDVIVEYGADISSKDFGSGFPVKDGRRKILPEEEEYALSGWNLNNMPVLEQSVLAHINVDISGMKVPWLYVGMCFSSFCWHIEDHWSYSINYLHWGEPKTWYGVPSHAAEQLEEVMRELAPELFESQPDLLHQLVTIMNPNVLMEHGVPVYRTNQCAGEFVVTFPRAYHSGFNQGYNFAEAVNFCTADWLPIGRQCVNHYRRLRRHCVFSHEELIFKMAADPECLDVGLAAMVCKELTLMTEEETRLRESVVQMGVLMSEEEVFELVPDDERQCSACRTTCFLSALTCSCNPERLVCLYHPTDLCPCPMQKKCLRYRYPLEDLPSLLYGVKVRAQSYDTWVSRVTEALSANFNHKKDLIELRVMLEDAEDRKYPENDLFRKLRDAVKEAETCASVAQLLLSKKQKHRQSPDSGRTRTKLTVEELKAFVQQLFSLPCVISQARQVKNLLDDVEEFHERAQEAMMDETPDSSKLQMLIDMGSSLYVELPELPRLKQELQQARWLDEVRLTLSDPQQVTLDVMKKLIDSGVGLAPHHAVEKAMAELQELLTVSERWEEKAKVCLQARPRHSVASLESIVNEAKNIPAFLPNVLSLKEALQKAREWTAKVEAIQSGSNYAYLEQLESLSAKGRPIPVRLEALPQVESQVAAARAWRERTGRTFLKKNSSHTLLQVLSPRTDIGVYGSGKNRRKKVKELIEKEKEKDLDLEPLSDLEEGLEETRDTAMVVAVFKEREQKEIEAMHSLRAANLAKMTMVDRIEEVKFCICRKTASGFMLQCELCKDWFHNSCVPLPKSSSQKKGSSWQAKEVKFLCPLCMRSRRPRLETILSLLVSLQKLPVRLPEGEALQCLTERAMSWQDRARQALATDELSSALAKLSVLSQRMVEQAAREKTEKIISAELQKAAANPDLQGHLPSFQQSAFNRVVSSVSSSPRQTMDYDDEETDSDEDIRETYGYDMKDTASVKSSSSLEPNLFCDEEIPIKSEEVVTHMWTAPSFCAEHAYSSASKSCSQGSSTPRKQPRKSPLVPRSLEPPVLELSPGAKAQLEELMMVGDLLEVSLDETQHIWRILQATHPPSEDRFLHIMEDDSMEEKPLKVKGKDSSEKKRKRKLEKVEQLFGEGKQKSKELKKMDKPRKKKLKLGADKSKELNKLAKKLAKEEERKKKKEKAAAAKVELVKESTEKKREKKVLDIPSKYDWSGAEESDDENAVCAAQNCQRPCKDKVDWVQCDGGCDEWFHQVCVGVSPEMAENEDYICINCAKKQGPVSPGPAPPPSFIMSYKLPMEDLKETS
Assay type: biochemical
Experimental: Full length recombinant Flag tagged KDM5A protein was purified from Sf9 insect cells. The demethylation reaction buffer contained 50 mM TrisCl pH 7.4, 0.01% Triton X-100, 0.025 mg/mL BSA, 1 mM ascorbate, 2 mM TCEP, 3.0 μM α-ketoglutarate, and 50 μM Fe2(NH4)2(SO4)2. […] After a one hour incubation assays were read on a Perkin-Elmer Envision equipped with a laser source and appropriate filters.
`CCc1c(C)[nH]c2c(-c3cnn(-c4ncc(N(C)C)cn4)c3)cnn2c1=O` [Example 5, 3-(1-(5-(dimethylamino)pyrimidin-2-yl)-1H-pyrazol-4-yl)-6-ethyl-5-methylpyrazolo[1,5-a]pyrimidin-7(4H)-one] was tested, and the pIC50 was 7.22.
Molecule `CCc1c(C)[nH]c2c(-c3cnn(-c4cc(OC)ccn4)c3)cnn2c1=O` [Example 15, 6-ethyl-3-(1-(4-methoxypyridin-2-yl)-1H-pyrazol-4-yl)-5-methylpyrazolo[1,5-a]pyrimidin-7(4H)-one] has a pIC50 of 7.18.
In the case of `Cc1ccnc(-n2cc(-c3cnn4c(=O)c(C5CC5)c(C)[nH]c34)cn2)c1` [Example 28, 6-cyclopropyl-5-methyl-3-(1-(4-methylpyridin-2-yl)-1H-pyrazol-4-yl)pyrazolo[1,5-a]pyrimidin-7(6H)-one], the pIC50 was 7.87.
In the case of `CCc1c(C)[nH]c2c(-c3cnn(-c4cc(Cl)ccn4)c3)cnn2c1=O` [Example 13, 3-(1-(4-chloropyridin-2-yl)-1H-pyrazol-4-yl)-6-ethyl-5-methylpyrazolo[1,5-a]pyrimidin-7(4H)-one], the pIC50 was 7.18.
Work on `Cc1[nH]c2c(-c3cnn(-c4ncccn4)c3)cnn2c(=O)c1C(C)C` [Example 19, 6-isopropyl-5-methyl-3-(1-(pyrimidin-2-yl)-1H-pyrazol-4-yl)pyrazolo[1,5-a]pyrimidin-7(4H)-one] yielded a pIC50 of 8.24.
With `CCc1c(C)[nH]c2c(-c3cnn(-c4cc(N(C)C)ccn4)c3)cnn2c1=O` [Example 16, 3-(1-(4-(dimethylamino)pyridin-2-yl)-1H-pyrazol-4-yl)-6-ethyl-5-methylpyrazolo[1,5-a]pyrimidin-7(4H)-one] the pIC50 was 6.39.
Work on `CCc1c(C)[nH]c2c(-c3cnn(C(C)=O)c3)cnn2c1=O` [Example 33, 3-(1-acetyl-1H-pyrazol-4-yl)-6-ethyl-5-methylpyrazolo[1,5-a]pyrimidin-7(4H)-one] yielded a pIC50 of 6.71.
For `CCc1c(C)[nH]c2c(-c3cnn(-c4cc(OCCO)ccn4)c3)cnn2c1=O` [Example 17, 6-ethyl-3-(1-(4-(2-hydroxyethoxy)pyridin-2-yl)-1H-pyrazol-4-yl)-5-methylpyrazolo[1,5-a]pyrimidin-7(4H)-one], the pIC50 was 7.85.
In the case of `Cc1cnc(-n2cc(-c3cnn4c(=O)c(C5CC5)c(C)[nH]c34)cn2)nc1` [Example 31, 6-cyclopropyl-5-methyl-3-(1-(5-methylpyrimidin-2-yl)-1H-pyrazol-4-yl)pyrazolo[1,5-a]pyrimidin-7(6H)-one], the pIC50 was 7.31.
`CCc1c(C)[nH]c2c(-c3cnn(C(=O)N(C)C)c3)cnn2c1=O` [Example 34, 4-(6-ethyl-5-methyl-7-oxo-4,7-dihydropyrazolo[1,5-a]pyrimidin-3-yl)-N,N-dimethyl-1H-pyrazole-1-carboxamide] gave a pIC50 of 5.38.
With `CCc1c(C)[nH]c2c(-c3cnn(-c4cc(C(=O)O)ccn4)c3)cnn2c1=O` [Example 10, 2-(4-(6-ethyl-5-methyl-7-oxo-4,7-dihydropyrazolo[1,5-a]pyrimidin-3-yl)-1H-pyrazol-1-yl)isonicotinic acid] the pIC50 was 6.70.
`Cc1[nH]c2c(-c3cnn(-c4ccccn4)c3)cnn2c(=O)c1C#N` [Example 64, 5-methyl-7-oxo-3-[1-(2-pyridyl)pyrazol-4-yl]-4H-pyrazolo[1,5-a]pyrimidine-6-carbonitrile] was tested, and the pIC50 was 6.08.
For `Cc1[nH]c2c(-c3cnn(-c4ccccn4)c3)cnn2c(=O)c1Cl` [Example 43, 6-chloro-5-methyl-3-[1-(2-pyridyl)pyrazol-4-yl]-4H-pyrazolo[1,5-a]pyrimidin-7-one], the pIC50 was 7.22.
Work on `Cc1[nH]c2c(-c3cnn(-c4ncccn4)c3)cnn2c(=O)c1C1CC1` [Example 29, 6-cyclopropyl-5-methyl-3-(1-(pyrimidin-2-yl)-1H-pyrazol-4-yl)pyrazolo[1,5-a]pyrimidin-7(6H)-one] yielded a pIC50 of 7.73.
`Cc1ccnc(-n2cc(-c3cnn4c(=O)c(C5CC5)c(C)[nH]c34)cn2)n1` [Example 30, 6-cyclopropyl-5-methyl-3-(1-(4-methylpyrimidin-2-yl)-1H-pyrazol-4-yl)pyrazolo[1,5-a]pyrimidin-7(6H)-one] was tested, and the pIC50 was 8.32.
